# Counter-ions that a name gives are not always drawn. Like-named read-outs stand apart in the source and are kept apart here.
# How the values were obtained:
# [1] = tested on: ZIKV SPH; assay: Autophagy compound library screen, ZIKV SPH titer (TCID50) in Vero cells; type: cell-based, Zika virus; settings: 10 µM compound, MOI 0.1, 40 h, TCID50, ± SEM, three independent trials
# [2] = tested on: Vero cells; assay: Cell viability (CellTiter-Glo) of Vero cells; type: cell-based
# [3] = tested on: ZIKV SPH; assay: Autophagy compound library screen, ZIKV SPH titer (TCID50) in C6/36 cells; type: cell-based, Zika virus; settings: 10 µM compound, MOI 0.1, 96 h, TCID50, ± SEM, three independent trials; for activity at 10 µM: Zika virus, C6/36, read-out: ZIKV SPH Relative Titer in C6/36 Cells
# [4] = tested on: C6/36 cells; type: cell-based, Ae. albopictus
# [5] = tested on: autophagic vesicles in Vero cells; assay: Autophagy detection (CYTO-ID) in Vero cells; type: cell-based; settings: 10 µM compound, 24 h, CYTO-ID green MFI vs DMSO control
# [6] = tested on: ZIKV IbH; assay: Autophagy compound screen in Vero cells infected with ZIKV IbH; type: cell-based, Zika virus; settings: African-lineage ZIKV IbH, 10 µM
# [7] = tested on: ZIKV; design: method as in ref 12 = [12]; settings: cited from earlier work
# [8] = tested on: ZIKV SPH; assay: Time-of-addition assay in Vero cells; type: cell-based, Zika virus; settings: Vero, 24 hpi
# [9] = 10 µM compound, 96 h, CellTiter-Glo, ± SEM, three independent trials
# [10] = 10 µM compound, 40 h, CellTiter-Glo, ± SEM, three independent trials
Compound,ZIKV SPH Relative Titer in Vero Cells [1],ZIKV SPH Relative Titer in C6/36 Cells [3],"C6/36 Viability [4, 9]",Vero Viability ([2]; 10 µM),"Vero Viability [2, 10]",further results
C=CC(C)(C)c1cc(/C=C/C(=O)c2ccc(O)cc2)c(OC)cc1O [Licochalcone A],7.2 ± 2.9% of untreated control,51.8 ± 28.5% of untreated control,43 ± 2% of untreated control,–,–,"ZIKV SPH Relative Titer in Vero Cells ([1]; listed as licochalcone A): below 10% of untreated control; Vero Viability ([2]; 10 µM compound, 40 h, CellTiter-Glo, ± SEM, three independent trials, 10 µM): 100.7 ± 9.4% of untreated control; Vero Viability ([2]; 10 µM compound, 40 h, CellTiter-Glo, ± SEM, three independent trials, listed as licochalcone A, 10 µM): above 80% of untreated control; Autophagy Activity Factor (AAF) [5]: 12.33; ZIKV IbH titer in Vero cells compared to control [6]: reduced ZIKV IbH titers"
CCN(CCO)CCCC(C)Nc1ccnc2cc(Cl)ccc12 (centres unmarked) [Hydroxychloroquine],decreased titers,decreased titers,–,85.3 ± 8.4% of untreated control,–,activity at 10 µM [3]: 25.1 ± 12.6%; C6/36 Viability ([4]; 10 µM): 35 ± 9.7% of untreated control; ZIKV spread in a mouse model [7]: blocked ZIKV spread
COC(=O)C1=C(C)NC(C)=C([N+](=O)[O-])C1c1ccccc1C(F)(F)F (racemic) [(±)Bay K8644],34.9 ± 15.2% of untreated control,39.4 ± 10.7% of untreated control,53 ± 11.1% of untreated control,–,94.0 ± 3% of untreated control,–
O=C(CC(=O)C(F)(F)F)c1cccs1 [TTFA],24.4 ± 7.6% of untreated control,72.8 ± 9.6% of untreated control,78 ± 19.9% of untreated control,–,90.0 ± 3.5% of untreated control,–
Tunicamycin,0.5 ± 0.5% of untreated control,1.8 ± 0.8% of untreated control,47 ± 7.6% of untreated control,–,56.3 ± 8.7% of untreated control,–
C[C@H](CCC(=O)[O-])[C@H]1CC[C@H]2[C@@H]3CC[C@@H]4C[C@H](O)CC[C@]4(C)[C@H]3C[C@H](O)[C@]12C.[Na+] [Deoxycholate·Na],76.6 ± 16.6% of untreated control,90.6 ± 12.5% of untreated control,83 ± 1% of untreated control,95.3 ± 2.6% of untreated control,–,–
NS(=O)(=O)C#Cc1ccccc1 [Pifithrin-µ],38.5 ± 12.4% of untreated control,75.3 ± 27.5% of untreated control,72 ± 3.2% of untreated control,49.0 ± 15% of untreated control,–,–
CO[C@H]1C[C@@H]2CC[C@@H](C)[C@@](O)(O2)C(=O)C(=O)N2CCCC[C@H]2C(=O)O[C@H]([C@H](C)C[C@@H]2CC[C@@H](O)[C@H](OC)C2)CC(=O)[C@H](C)/C=C(\C)[C@@H](O)[C@@H](OC)C(=O)[C@H](C)C[C@H](C)/C=C/C=C/C=C/1C [Rapamycin],increased ZIKV titers,slightly decreased production,–,66.0 ± 2.6% of untreated control,–,ZIKV SPH Relative Titer in C6/36 Cells ([3]; listed as rapamycin): slightly decreased titers; activity at 10 µM [3]: 75.7 ± 47.7%; C6/36 Viability ([4]; 10 µM): 59 ± 7.3% of untreated control; Autophagy Activity Factor (AAF) [5]: 7.74
CNCCCN1c2ccccc2CCc2ccc(Cl)cc21.Cl [Norclomipramine HCl],3.9 ± 0.5% of untreated control,13.4 ± 8.7% of untreated control,19 ± 8.9% of untreated control,–,48.7 ± 22.9% of untreated control,–
CCCCCC[C@@H]([C@@H](C)O)n1cnc2c(N)ncnc21.Cl [EHNA·HCl],81.0 ± 7.6% of untreated control,36.4 ± 9.1% of untreated control,55 ± 4.2% of untreated control,92.3 ± 2% of untreated control,–,–
COc1ccc(C[C@H]2NC[C@H](O)[C@H]2OC(C)=O)cc1 [Anisomycin],0.0 ± 0% of untreated control,0.0 ± 0% of untreated control,7 ± 0.9% of untreated control,–,12.7 ± 4.3% of untreated control,–
"CC(Oc1ccc(O)cc1)(P(=O)(O)O)P(=O)(O)O [L-690,330]",40.7 ± 10.6% of untreated control,66.8 ± 2.6% of untreated control,87 ± 4.6% of untreated control,–,93.7 ± 3.5% of untreated control,–
CCN(CC)CCCCN1c2ccccc2Oc2ccc(Cl)cc21.Cl [Akt Inhibitor X·HCl],3.5 ± 3.3% of untreated control,0.0 ± 0% of untreated control,7 ± 1.9% of untreated control,32.3 ± 14.2% of untreated control,–,–
CN1CCN(CCCN2c3ccccc3Sc3ccc(C(F)(F)F)cc32)CC1.Cl.Cl [Trifluoperazine·2HCl],2.8 ± 0.7% of untreated control,0.3 ± 0.3% of untreated control,10 ± 3.8% of untreated control,51.0 ± 22.1% of untreated control,–,–
CN(C)CCCn1cc(C2=C(c3c[nH]c4ccccc34)C(=O)NC2=O)c2ccccc21 [Go6850],1.3 ± 0.9% of untreated control,1.4 ± 1.4% of untreated control,21 ± 0% of untreated control,–,36.0 ± 9% of untreated control,–
CCCCCCCCCCCCCCC[C@@H](O)[C@H](CO)NC(C)=O [C2-dihydroceramide],36.5 ± 3% of untreated control,262.1 ± 51.7% of untreated control,97 ± 5.8% of untreated control,101.3 ± 3.7% of untreated control,–,–
NC(=O)c1ncn([C@@H]2O[C@H](CO)[C@@H](O)[C@H]2O)c1N [AICAR],112.3 ± 32.3% of untreated control,252.0 ± 115% of untreated control,125 ± 16.4% of untreated control,–,90.0 ± 11.1% of untreated control,–
CCCCc1oc2ccccc2c1C(=O)c1cc(I)c(OCCN(CC)CC)c(I)c1 [Amiodarone HCl],–,–,–,–,–,activity at 10 µM [3]: 2 ± 0.5%; Autophagy Activity Factor (AAF) [5]: 60.40; ZIKV IbH titer in Vero cells compared to control [6]: reduced ZIKV IbH titers
COc1cc(CNC(=O)CCCCCCC(C)C)ccc1O [Dihydrocapsaicin],–,–,–,92.3 ± 3.8% of untreated control,–,"activity at 10 µM ([1]; Zika virus, Vero, read-out: ZIKV SPH Relative Titer in Vero Cells): 28.7 ± 10.5%; activity at 10 µM [3]: 64.1 ± 16%; C6/36 Viability ([4]; 10 µM): 61 ± 2.2% of untreated control"
Cl.N [Ammonium chloride],–,–,–,–,–,"ZIKV replication, time-of-addition ([8]; 30 mM ammonium chloride added later in infection): less inhibitory; ZIKV replication, time-of-addition ([8]; 30 mM ammonium chloride, 2 h prior to infection and at the time of infection): inhibited ZIKV replication"
